Experimental data as given in article PMC8445441, “Elucidating the mechanism by which synthetic helper peptides sensitize Pseudomonas aeruginosa to multiple antibiotics” (PLoS Pathogens, 2021).
Read-outs that look alike come from different tables or passages of the source.

Assays:
[1] = test system: P. aeruginosa AUMC-Pa-3; assay: microbe, parasite or virus in culture; conditions: strain AUMC-Pa-3
Procedure, shortened: (§1)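 Growth inhibition was scored by eye after an 18 h, 37 °C incubation of drug-bacteria mixtures in Mueller-Hinton broth. Inoculum suspension held approximately 1 × 10^6 CFU/mL before 1:1 mixing.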

[2] = test system: P. aeruginosa AUMC-Pa-4; assay: microbe, parasite or virus in culture; conditions: strain AUMC-Pa-4
Procedure, shortened: as §1

[3] = test system: P. aeruginosa AUMC-Pa-5; assay: microbe, parasite or virus in culture; conditions: strain AUMC-Pa-5
Procedure, shortened: as §1

[4] = test system: P. aeruginosa AUMC-Pa-6; assay: microbe, parasite or virus in culture; conditions: strain AUMC-Pa-6
Procedure, shortened: as §1

[5] = test system: P. aeruginosa PAO1; assay: microbe, parasite or virus in culture; conditions: S3 Table, PAO1
Procedure, shortened: as §1

[6] = test system: P. aeruginosa ATCC27853; assay: microbe, parasite or virus in culture; parameters: MICa: MIC of the antibiotic / MICac: MIC of the antibiotic in the combination: unit not given beside the values; conditions: strain ATCC27853
Description: (§2) The MIC tests were performed in triplicate using broth microdilution in accordance with Clinical and Laboratory Standards Institute (CLSI) recommendations (http://iacld.ir/DL/public/CLSI-2018-M100-S28.pdf). Briefly, drugs were two-fold diluted in MHB and mixed with an equal volume of bacterial suspensions containing approximately 1 × 10^6 CFU/mL in 96-well microliter plate. After 18 h incubation at 37 °C, the MIC values were defined as the lowest concentrations of antibiotics with no visible growth of bacteria. […] Otherwise, 1/4 MIC of the peptide was used in the combination. […] If needed, membrane compounds PG, PE, PC, CL or LPS, or membrane stabilizers MgCl2 or CaCl2, or efflux pumps inhibitor PAβN were added to the broth medium to clarify the effect of other substances on the synergy between peptide and antibiotics. All the tests were performed in triplicate.
(§3) The fractional inhibitory concentration (FIC) indices were calculated using the previously described formula FICI = FICa + FICb = MICac/MICa + MICbc/MICb. The FICI was interpreted according to EUCAST [65] as follows: synergistic, FICI≤0.5; additive, 0.5<FICI≤1; indifferent, 1<FICI<2; antagonistic, FICI ≥2. For the FICI calculations, twice the highest concentration tested was used in the cases where the MIC was not reached.

[7] = test system: P. aeruginosa NR-31040; assay: microbe, parasite or virus in culture; parameters: MICa: MIC of the antibiotic / MICac: MIC of the antibiotic in the combination: unit not given beside the values; conditions: strain NR-31040
Description: as §2, §3

[8] = test system: P. aeruginosa NR-31041; assay: microbe, parasite or virus in culture; parameters: MICa: MIC of the antibiotic / MICac: MIC of the antibiotic in the combination: unit not given beside the values; conditions: strain NR-31041
Description: as §2, §3

[9] = test system: P. aeruginosa PA14; assay: microbe, parasite or virus in culture; parameters: MICa: MIC of the antibiotic / MICac: MIC of the antibiotic in the combination: unit not given beside the values; conditions: strain PA14
Description: as §2, §3

[10] = test system: P. aeruginosa PAK; assay: microbe, parasite or virus in culture; parameters: MICa: MIC of the antibiotic / MICac: MIC of the antibiotic in the combination: unit not given beside the values; conditions: strain PAK
Description: as §2, §3

[11] = test system: P. aeruginosa HM-214; conditions: strain HM-214; antibiotic + D-11 (MICb/MICbc 128/4)
Description: as §2, §3

[12] = test system: P. aeruginosa AUMC-Pa-1; conditions: strain AUMC-Pa-1; antibiotic + D-11 (MICb/MICbc 128/4)
Description: as §2, §3

[13] = test system: P. aeruginosa AUMC-Pa-2; conditions: strain AUMC-Pa-2; antibiotic + D-11 (MICb/MICbc 64/4)
Description: as §2, §3

[14] = test system: clinical P. aeruginosa isolates; assay: microbe, parasite or virus in culture; conditions: Pseudomonas aeruginosa, 18 h, antibiotic alone
Procedure, shortened: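 Broth microdilution per CLSI in MHB, two-fold drug dilutions mixed with an equal volume of bacteria at about 1 × 10^6 CFU/mL. After 18 h at 37 °C, MIC taken as the lowest concentration with no visible growth; run in triplicate.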

[15] = antibiotic + D-11 (MICb/MICbc 128/4)
[16] = antibiotic alone, unit not given
[17] = with D-11 at MICbc 4, unit not given
[18] = antibiotic + D-11 (MICb/MICbc 64/4)

- MICa: MIC of the antibiotic [1, 16]: 128
- MICac: MIC of the antibiotic in the combination [1, 17]: 32
- MICa: MIC of the antibiotic [2, 16]: 128
- MICac: MIC of the antibiotic in the combination [2, 17]: 64
- MICa: MIC of the antibiotic [3, 16]: 128/128
- MICac: MIC of the antibiotic in the combination [3, 17]: 128/128
- MICa: MIC of the antibiotic [4, 16]: 128/128
- MICac: MIC of the antibiotic in the combination [4, 17]: 128/128
- MICac: the MIC for the antibiotic in the combination ([5]; with 2 μM D-11): 16 µM
- MICac: the MIC for the antibiotic in the combination ([5]; with 4 μM D-11): 4 µM
- MICa: the MIC of antibiotics ([5]; antibiotic alone): 64 µM
- MICa: MIC of the antibiotic [6, 16]: 128
- MICac: MIC of the antibiotic in the combination [6, 17]: 32
- MICa: MIC of the antibiotic [7, 16]: 64/64
- MICac: MIC of the antibiotic in the combination [7, 17]: 64/64
- MICa: MIC of the antibiotic [8, 16]: 128/128
- MICac: MIC of the antibiotic in the combination [8, 17]: 128/128
- MICa: MIC of the antibiotic [9, 16]: 128/128
- MICac: MIC of the antibiotic in the combination [9, 17]: 128/128
- MICa: MIC of the antibiotic [10, 16]: 128
- MICac: MIC of the antibiotic in the combination [10, 17]: 64
- MIC ([14]; read-out: Antibiotic sensibility (MIC) of clinical P. aeruginosa isolate AUMC-Pa-1, strain AUMC-Pa-1): > 128 µM
- MIC ([14]; read-out: Antibiotic sensibility (MIC) of clinical P. aeruginosa isolate AUMC-Pa-2, strain AUMC-Pa-2): 64 µM
- MIC ([14]; read-out: Antibiotic sensibility (MIC) of clinical P. aeruginosa isolate AUMC-Pa-3, strain AUMC-Pa-3): 128 µM
- MIC ([14]; read-out: Antibiotic sensibility (MIC) of clinical P. aeruginosa isolate AUMC-Pa-4, strain AUMC-Pa-4): 128 µM
- MIC ([14]; read-out: Antibiotic sensibility (MIC) of clinical P. aeruginosa isolate AUMC-Pa-5, strain AUMC-Pa-5): 128 µM
- MIC ([14]; read-out: Antibiotic sensibility (MIC) of clinical P. aeruginosa isolate AUMC-Pa-6, strain AUMC-Pa-6): 128 µM
- MIC ([14]; read-out: Antibiotic sensibility (MIC) of clinical P. aeruginosa isolate HM-214, strain HM-214): 128 µM
- MIC ([14]; read-out: Antibiotic sensibility (MIC) of clinical P. aeruginosa isolate NR-31040, strain NR-31040): 64 µM
- MIC ([14]; read-out: Antibiotic sensibility (MIC) of clinical P. aeruginosa isolate NR-31041, strain NR-31041): 128 µM
SMILES: CC1(C)S[C@@H]2[C@H](NC(=O)C(C(=O)O)c3ccccc3)C(=O)N2[C@H]1C(=O)O (some centres unmarked) [Carbenicillin]
- FICI [1, 15]: 0.281
- FICI [2, 15]: 0.531
- FICI [3, 18]: 1.063
- FICI [4, 18]: 1.063
- FICI ([5]; antibiotic + 2 μM D-11): 0.313
- FICI ([5]; antibiotic + 4 μM D-11): 0.188
- FICI ([6]; antibiotic + D-11 (MICb/MICbc 32/4)): 0.375
- FICI [7, 15]: 1.031
- FICI [8, 18]: 1.063
- FICI [9, 15]: 1.031
- FICI [10, 18]: 0.563
- FICI [11]: 1.031
- FICI [12]: 0.531
- FICI [13]: 1.063
